Data published in PMC5218480 (PLoS ONE, 2017).

System: MV-4-11 cells
Test: Gene expression microarray analysis (Affymetrix PrimeView) and GSEA
Format: cell-based, human
Parameters: RFU PODN (11730768_x_at) / Fold change /veh PODN (11730768_x_at) / RFU LINC00158 (11744669_a_at) / Fold change /veh LINC00158 (11744669_a_at) / RFU DUSP10 (11751237_a_at) / Fold change /veh DUSP10 (11751237_a_at) / RFU ID3 (11757404_x_at) / Fold change /veh ID3 (11757404_x_at) / RFU PLEKHG5 (11737974_s_at) / Fold change /veh PLEKHG5 (11737974_s_at) / RFU LRRC4B (11730491_at) / Fold change /veh LRRC4B (11730491_at) / RFU GIMAP4 (11747438_a_at) / Fold change /veh GIMAP4 (11747438_a_at) / RFU KRT8 (11758183_x_at) / Fold change /veh KRT8 (11758183_x_at) / RFU CNN1 (11734310_a_at) / Fold change /veh CNN1 (11734310_a_at) / RFU VPS37D (11726825_at) / Fold change /veh VPS37D (11726825_at) / RFU C10orf10 (11716522_x_at) / Fold change /veh C10orf10 (11716522_x_at) / RFU KIR2DL2 /// KIR2DL4 /// KIR2DL5A /// KIR2DL5B /// KIR2DS1 /// KIR2DS2 /// KIR2DS3 /// KIR2DS4 /// KIR3DL3 /// KIR3DL3 /// KIR3DS1 (11738374_at) / Fold change /veh KIR2DL2 /// KIR2DL4 /// KIR2DL5A /// KIR2DL5B /// KIR2DS1 /// KIR2DS2 /// KIR2DS3 /// KIR2DS4 /// KIR3DL3 /// KIR3DL3 /// KIR3DS1 (11738374_at) / RFU C1QL1 (11718748_at) / Fold change /veh C1QL1 (11718748_at) / RFU TMPRSS4 (11747572_a_at) / Fold change /veh TMPRSS4 (11747572_a_at) / RFU HAMP (11756126_x_at) / Fold change /veh HAMP (11756126_x_at) / RFU RNFT2 (11725882_a_at) / Fold change /veh RNFT2 (11725882_a_at) / RFU NR4A2 (11747474_a_at) / Fold change /veh NR4A2 (11747474_a_at) / RFU ABCC12 (11746883_a_at) / Fold change /veh ABCC12 (11746883_a_at) / RFU TMEM136 (11760407_x_at) / Fold change /veh TMEM136 (11760407_x_at) / RFU CLDN22 /// WWC2 (11732394_at) / Fold change /veh CLDN22 /// WWC2 (11732394_at) / RFU HLA-DPB1 (11760878_x_at) / Fold change /veh HLA-DPB1 (11760878_x_at) / RFU SPINT1 (11716480_a_at) / Fold change /veh SPINT1 (11716480_a_at) / RFU GAP43 (11754022_s_at) / Fold change /veh GAP43 (11754022_s_at) / RFU A4GNT (11735810_at) / Fold change /veh A4GNT (11735810_at) / RFU PRB3 (11715151_x_at) / Fold change /veh PRB3 (11715151_x_at) / RFU TUBB4B (11761932_at) / Fold change /veh TUBB4B (11761932_at) / RFU CAPN14 (11732068_a_at) / Fold change /veh CAPN14 (11732068_a_at) / RFU TMCC2 (11721928_a_at) / Fold change /veh TMCC2 (11721928_a_at) / RFU IRGQ (11745062_a_at) / Fold change /veh IRGQ (11745062_a_at) / RFU FAM174B (11720279_a_at) / Fold change /veh FAM174B (11720279_a_at) / RFU TMPRSS4 (11748680_a_at) / Fold change /veh TMPRSS4 (11748680_a_at) / RFU FAM212B (11763350_a_at) / Fold change /veh FAM212B (11763350_a_at) / RFU PLEKHG5 (11743358_a_at) / Fold change /veh PLEKHG5 (11743358_a_at) / RFU ZSCAN30 (11745921_a_at) / Fold change /veh ZSCAN30 (11745921_a_at) / RFU CMKLR1 (11741424_a_at) / Fold change /veh CMKLR1 (11741424_a_at) / RFU LOC101060620 /// MAPK8IP1 (11723275_at) / Fold change /veh LOC101060620 /// MAPK8IP1 (11723275_at) / RFU SPTSSB (11747773_x_at) / Fold change /veh SPTSSB (11747773_x_at) / RFU PRSS12 (11739890_at) / Fold change /veh PRSS12 (11739890_at) / RFU BIN1 (11741810_x_at) / Fold change /veh BIN1 (11741810_x_at) / RFU WNT11 (11732464_a_at) / Fold change /veh WNT11 (11732464_a_at) / RFU C10orf10 (11716521_a_at) / Fold change /veh C10orf10 (11716521_a_at) / RFU C5orf56 (11738089_at) / Fold change /veh C5orf56 (11738089_at) / RFU CYB561 (11721691_x_at) / Fold change /veh CYB561 (11721691_x_at) / RFU ANKRD19P (11752326_a_at) / Fold change /veh ANKRD19P (11752326_a_at) / RFU OR2T12 /// OR2T33 /// OR2T8 (11738714_s_at) / Fold change /veh OR2T12 /// OR2T33 /// OR2T8 (11738714_s_at) / RFU VCAN (11748164_a_at) / Fold change /veh VCAN (11748164_a_at) / RFU JSRP1 (11732532_at) / Fold change /veh JSRP1 (11732532_at) / RFU KRTAP10-11 (11738290_x_at) / Fold change /veh KRTAP10-11 (11738290_x_at) / RFU MYO3A (11730013_a_at) / Fold change /veh MYO3A (11730013_a_at) / RFU EBF3 (11725865_a_at) / Fold change /veh EBF3 (11725865_a_at) / RFU CAMK2N1 (11719241_x_at) / Fold change /veh CAMK2N1 (11719241_x_at) / RFU C5orf56 (11738088_a_at) / Fold change /veh C5orf56 (11738088_a_at) / RFU OLFML3 (11715873_a_at) / Fold change /veh OLFML3 (11715873_a_at) / RFU LOC100653217 /// NTM (11731650_a_at) / Fold change /veh LOC100653217 /// NTM (11731650_a_at) / RFU MAPK11 (11762145_a_at) / Fold change /veh MAPK11 (11762145_a_at) / RFU FIZ1 (11724087_x_at) / Fold change /veh FIZ1 (11724087_x_at) / RFU OASL (11726364_x_at) / Fold change /veh OASL (11726364_x_at) / RFU SOX15 (11748057_x_at) / Fold change /veh SOX15 (11748057_x_at) / RFU CD79A (11719716_a_at) / Fold change /veh CD79A (11719716_a_at) / RFU HIST1H1D (11736915_at) / Fold change /veh HIST1H1D (11736915_at) / RFU CASKIN2 (11723855_a_at) / Fold change /veh CASKIN2 (11723855_a_at) / RFU LOC730098 (11760151_x_at) / Fold change /veh LOC730098 (11760151_x_at) / RFU OR4N2 (11742367_at) / Fold change /veh OR4N2 (11742367_at) / RFU PRRT2 (11749266_a_at) / Fold change /veh PRRT2 (11749266_a_at) / RFU SNX32 (11753110_a_at) / Fold change /veh SNX32 (11753110_a_at) / RFU CDHR5 (11726645_a_at) / Fold change /veh CDHR5 (11726645_a_at) / RFU RCAN1 (11760418_a_at) / Fold change /veh RCAN1 (11760418_a_at) / RFU FAM167A (11723789_a_at) / Fold change /veh FAM167A (11723789_a_at) / RFU FAM26E (11764081_at) / Fold change /veh FAM26E (11764081_at) / RFU ISYNA1 (11749810_s_at) / Fold change /veh ISYNA1 (11749810_s_at) / RFU ACY1 (11761880_at) / Fold change /veh ACY1 (11761880_at) / RFU 11764098_at / Fold change /veh 11764098_at / RFU SAMD14 (11745864_x_at) / Fold change /veh SAMD14 (11745864_x_at) / RFU NPB (11741838_a_at) / Fold change /veh NPB (11741838_a_at) / RFU TMPRSS6 (11731388_a_at) / Fold change /veh TMPRSS6 (11731388_a_at) / RFU KRTAP10-2 (11738614_at) / Fold change /veh KRTAP10-2 (11738614_at) / RFU ARHGAP8 /// PRR5-ARHGAP8 (11727945_x_at) / Fold change /veh ARHGAP8 /// PRR5-ARHGAP8 (11727945_x_at) / RFU KRTAP5-7 /// NADSYN1 (11734609_at) / Fold change /veh KRTAP5-7 /// NADSYN1 (11734609_at) / RFU RASL12 (11751679_a_at) / Fold change /veh RASL12 (11751679_a_at) / RFU CDKN2B (11736163_a_at) / Fold change /veh CDKN2B (11736163_a_at) / RFU PRF1 (11729649_at) / Fold change /veh PRF1 (11729649_at) / RFU, ZNF638 /// ZNF638-IT1 / Fold change vs veh, ZNF638 /// ZNF638-IT1 / RFU, PANK3 / Fold change vs veh, PANK3 / RFU, SH3YL1 / Fold change vs veh, SH3YL1 / RFU, ZEB2 / Fold change vs veh, ZEB2 / RFU, NRIP1 / Fold change vs veh, NRIP1 / RFU, PTTG1IP / Fold change vs veh, PTTG1IP / RFU, CAPN2 / Fold change vs veh, CAPN2 / RFU, MED14 / Fold change vs veh, MED14 / RFU, SNORA58 / Fold change vs veh, SNORA58 / RFU, C1orf63 / Fold change vs veh, C1orf63 / RFU, LRRFIP1 / Fold change vs veh, LRRFIP1 / RFU, NDUFAF7 / Fold change vs veh, NDUFAF7 / RFU, SLC12A2 / Fold change vs veh, SLC12A2 / RFU, IBTK / Fold change vs veh, IBTK / RFU, ESF1 / Fold change vs veh, ESF1 / Fold change vs veh, TMEM50B / RFU, TAOK1 / Fold change vs veh, TAOK1 / RFU, ACBD3 / Fold change vs veh, ACBD3 / RFU, TMA16 / Fold change vs veh, TMA16 / RFU, RWDD3 / Fold change vs veh, RWDD3 / RFU, BCAT1 / Fold change vs veh, BCAT1 / RFU, EDEM3 / Fold change vs veh, EDEM3 / RFU, TMEM33 / Fold change vs veh, TMEM33 / RFU, WDR75 / Fold change vs veh, WDR75 / RFU, AHCTF1 / Fold change vs veh, AHCTF1 / RFU, TFRC / Fold change vs veh, TFRC / RFU, ZDHHC17 / Fold change vs veh, ZDHHC17 / RFU, NOM1 / Fold change vs veh, NOM1 / RFU, ARL8B / Fold change vs veh, ARL8B / RFU, ZBTB11 / Fold change vs veh, ZBTB11 / RFU, TAMM41 / Fold change vs veh, TAMM41 / RFU, KIAA1704 /// LOC100996395 / Fold change vs veh, KIAA1704 /// LOC100996395 / RFU, ING1 / Fold change vs veh, ING1 / RFU, TRMT61B / Fold change vs veh, TRMT61B / RFU, FUBP3 / Fold change vs veh, FUBP3 / RFU, TP53 / Fold change vs veh, TP53 / RFU, TNKS2 / Fold change vs veh, TNKS2 / RFU, ZFP14 / Fold change vs veh, ZFP14 / RFU, ACTR2 / Fold change vs veh, ACTR2 / RFU, PPP3R1 / Fold change vs veh, PPP3R1 / RFU, PIK3R1 / Fold change vs veh, PIK3R1 / RFU, HNRNPA1 / Fold change vs veh, HNRNPA1 / RFU, RNF170 / Fold change vs veh, RNF170 / RFU, ZNF28 / Fold change vs veh, ZNF28 / RFU, RNGTT / Fold change vs veh, RNGTT / RFU, OGT / Fold change vs veh, OGT / RFU, BRD1 / Fold change vs veh, BRD1 / RFU, MARS / Fold change vs veh, MARS / RFU, ZNF655 / Fold change vs veh, ZNF655 / RFU, FAHD1 / Fold change vs veh, FAHD1 / RFU, BDP1 / Fold change vs veh, BDP1 / RFU, LRRCC1 / Fold change vs veh, LRRCC1 / RFU, ARID1A / Fold change vs veh, ARID1A / RFU, ZNF146 / Fold change vs veh, ZNF146 / RFU, ZNF330 / Fold change vs veh, ZNF330 / RFU, GPN3 / Fold change vs veh, GPN3 / RFU, C9orf123 / Fold change vs veh, C9orf123 / RFU, N4BP2L2 / Fold change vs veh, N4BP2L2 / RFU, ARFIP1 / Fold change vs veh, ARFIP1 / RFU, FAM179B / Fold change vs veh, FAM179B / RFU, BCL10 / Fold change vs veh, BCL10 / RFU, UHRF1BP1L / Fold change vs veh, UHRF1BP1L / RFU, BET1 / Fold change vs veh, BET1 / RFU, CNOT2 / Fold change vs veh, CNOT2 / RFU, ZNF268 / Fold change vs veh, ZNF268 / Fold change vs veh, ZNF507 / RFU, DGCR2 / Fold change vs veh, DGCR2 / RFU, WDSUB1 / Fold change vs veh, WDSUB1 / Fold change vs veh, HSP90B1 /// MIR3652 / RFU, ADSS / Fold change vs veh, ADSS / RFU, GK / Fold change vs veh, GK / RFU, ZNF148 / Fold change vs veh, ZNF148 / RFU, TAF9 / Fold change vs veh, TAF9 / RFU, SLC1A5 / Fold change vs veh, SLC1A5 / RFU, SLMO2 / Fold change vs veh, SLMO2 / RFU, ABCC4 / Fold change vs veh, ABCC4 / RFU, LOC101060439 /// RAP1B / Fold change vs veh, LOC101060439 /// RAP1B / RFU, RFX7 / Fold change vs veh, RFX7 / RFU, GTPBP10 / Fold change vs veh, GTPBP10 / RFU, CNEP1R1 / Fold change vs veh, CNEP1R1 / RFU, BIVM-ERCC5 /// ERCC5 / Fold change vs veh, BIVM-ERCC5 /// ERCC5 / RFU, ILF3 / Fold change vs veh, ILF3 / RFU 11762660_at / Fold change /veh 11762660_at / RFU VCAN (11757783_s_at) / Fold change /veh VCAN (11757783_s_at) / RFU DDX43 (11728927_at) / Fold change /veh DDX43 (11728927_at) / RFU KRT8 (11758188_x_at) / Fold change /veh KRT8 (11758188_x_at) / RFU NKD1 (11759106_at) / Fold change /veh NKD1 (11759106_at) / RFU SRD5A1 (11742802_a_at) / Fold change /veh SRD5A1 (11742802_a_at) / RFU TPSAB1 /// TPSB2 (11721975_s_at) / Fold change /veh TPSAB1 /// TPSB2 (11721975_s_at) / RFU GSTM3 (11746129_a_at) / Fold change /veh GSTM3 (11746129_a_at) / RFU IL23R (11737362_x_at) / Fold change /veh IL23R (11737362_x_at) / RFU TMEM51 (11727254_a_at) / Fold change /veh TMEM51 (11727254_a_at) / RFU PIWIL2 (11732686_x_at) / Fold change /veh PIWIL2 (11732686_x_at) / RFU ORM1 (11744905_x_at) / Fold change /veh ORM1 (11744905_x_at) / RFU CCDC152 (11743942_at) / Fold change /veh CCDC152 (11743942_at) / RFU ECM1 (11717891_a_at) / Fold change /veh ECM1 (11717891_a_at) / RFU IL23R (11748794_a_at) / Fold change /veh IL23R (11748794_a_at) / RFU TNFAIP8L3 (11732012_x_at) / Fold change /veh TNFAIP8L3 (11732012_x_at) / RFU MBOAT4 (11741988_at) / Fold change /veh MBOAT4 (11741988_at) / RFU 11764193_at / Fold change /veh 11764193_at / RFU TMEM53 (11763286_at) / Fold change /veh TMEM53 (11763286_at) / RFU MAGEB2 (11727129_at) / Fold change /veh MAGEB2 (11727129_at) / RFU TMEM200A (11744735_a_at) / Fold change /veh TMEM200A (11744735_a_at) / RFU CCDC152 (11751479_a_at) / Fold change /veh CCDC152 (11751479_a_at) / RFU FAM211A (11726209_a_at) / Fold change /veh FAM211A (11726209_a_at) / RFU RGS16 (11746705_a_at) / Fold change /veh RGS16 (11746705_a_at) / RFU VCAN (11755009_s_at) / Fold change /veh VCAN (11755009_s_at) / RFU RHOB (11743442_s_at) / Fold change /veh RHOB (11743442_s_at) / RFU RGS16 (11720943_a_at) / Fold change /veh RGS16 (11720943_a_at) / RFU RGS16 (11720944_at) / Fold change /veh RGS16 (11720944_at) / RFU, VPS4B / Fold change vs veh, VPS4B / RFU, CREB1 / Fold change vs veh, CREB1 / RFU, DNAJC13 / Fold change vs veh, DNAJC13 / RFU, GNAQ / Fold change vs veh, GNAQ / RFU, CDK5R1 / Fold change vs veh, CDK5R1 / RFU, ZRANB3 / Fold change vs veh, ZRANB3 / RFU, CUL4A / Fold change vs veh, CUL4A / RFU, CCNY / Fold change vs veh, CCNY / RFU, UFL1 / Fold change vs veh, UFL1 / RFU, COG3 / Fold change vs veh, COG3 / RFU, DIAPH2 / Fold change vs veh, DIAPH2 / RFU, SKA2 / Fold change vs veh, SKA2 / RFU, AFF3 / Fold change vs veh, AFF3 / RFU, LMF1 / Fold change vs veh, LMF1 / RFU, IPO11 / Fold change vs veh, IPO11 / RFU, DFFB / Fold change vs veh, DFFB / RFU, FOXP1 / Fold change vs veh, FOXP1 / RFU, CARD8 / Fold change vs veh, CARD8 / RFU, STRN3 / Fold change vs veh, STRN3 / RFU, ADK / Fold change vs veh, ADK / RFU, RASSF2 / Fold change vs veh, RASSF2 / RFU, WIPF1 / Fold change vs veh, WIPF1 / RFU, LARP1B / Fold change vs veh, LARP1B / RFU, RASA1 / Fold change vs veh, RASA1 / RFU, RB1 / Fold change vs veh, RB1 / RFU, PPFIA1 / Fold change vs veh, PPFIA1 / RFU, MAT2A / Fold change vs veh, MAT2A / RFU, CCT5 / Fold change vs veh, CCT5 / RFU, WDR92 / Fold change vs veh, WDR92 / RFU, CUX1 / Fold change vs veh, CUX1 / RFU, TTC7A / Fold change vs veh, TTC7A / RFU, TMEM135 / Fold change vs veh, TMEM135 / RFU, DEPTOR / Fold change vs veh, DEPTOR / RFU, CPM / Fold change vs veh, CPM / RFU, DNAJB6 / Fold change vs veh, DNAJB6 / RFU, CACNA2D3 / Fold change vs veh, CACNA2D3 / RFU, DTX4 / Fold change vs veh, DTX4 / RFU, TFCP2 / Fold change vs veh, TFCP2 / RFU, GMCL1 /// GMCL1P1 / Fold change vs veh, GMCL1 /// GMCL1P1 / RFU, AEBP2 / Fold change vs veh, AEBP2 / RFU, SNHG1 /// SNORD22 /// SNORD25 /// SNORD26 /// SNORD27 /// SNORD28 /// SNORD29 /// SNORD31 / Fold change vs veh, SNHG1 /// SNORD22 /// SNORD25 /// SNORD26 /// SNORD27 /// SNORD28 /// SNORD29 /// SNORD31 / Fold change (Aza/veh), C12orf56 (ProbeSet 11735607_a_at) / Fold change (ACY-1035/veh), C12orf56 (ProbeSet 11735607_a_at) / Fold change (Aza/veh), FGFR1OP (ProbeSet 11751329_s_at) / Fold change (ACY-1035/veh), FGFR1OP (ProbeSet 11751329_s_at) / Fold change (Aza/veh), VPS36 (ProbeSet 11739960_a_at) / Fold change (ACY-1035/veh), VPS36 (ProbeSet 11739960_a_at) / RFU SYPL1 (11715823_x_at) / Fold change /veh SYPL1 (11715823_x_at) / RFU IGFBP7 (11715501_s_at) / Fold change /veh IGFBP7 (11715501_s_at) / RFU REEP3 (11722064_at) / Fold change /veh REEP3 (11722064_at) / RFU IGLL1 (11728026_x_at) / Fold change /veh IGLL1 (11728026_x_at): dose or concentration left out as unconfirmed
Conditions: MV-4-11 cells, 48 hours

## Nc1ncn([C@@H]2O[C@H](CO)[C@@H](O)[C@H]2O)c(=O)n1 [azacitidine]
  RFU TMEM51 (11727254_a_at): 17.35 RFU
